Like-named read-outs stand apart in the source and are kept apart here.
Tests used:
Pneumocystis = settings: cited from earlier work
mammalian cell lines = settings: cited from earlier work
hERG [1] = target: T1, hERG (Homo sapiens, UniProt Q12809); assay: Western blot of hERG maturation; assay type: cell-based; settings: 24 h, HEK-hERG; for hERG maturation (mature/immature ratio), dose–response: 0.5–20 μM
hERG [2] = target: T1, hERG; assay: Immunofluorescence microscopy of hERG localization in HEK-hERG cells; assay type: cell-based; settings: 24 h, pentamidine 10 μM, analogues 10 μM

T1 sequence (Q12809 whole entry): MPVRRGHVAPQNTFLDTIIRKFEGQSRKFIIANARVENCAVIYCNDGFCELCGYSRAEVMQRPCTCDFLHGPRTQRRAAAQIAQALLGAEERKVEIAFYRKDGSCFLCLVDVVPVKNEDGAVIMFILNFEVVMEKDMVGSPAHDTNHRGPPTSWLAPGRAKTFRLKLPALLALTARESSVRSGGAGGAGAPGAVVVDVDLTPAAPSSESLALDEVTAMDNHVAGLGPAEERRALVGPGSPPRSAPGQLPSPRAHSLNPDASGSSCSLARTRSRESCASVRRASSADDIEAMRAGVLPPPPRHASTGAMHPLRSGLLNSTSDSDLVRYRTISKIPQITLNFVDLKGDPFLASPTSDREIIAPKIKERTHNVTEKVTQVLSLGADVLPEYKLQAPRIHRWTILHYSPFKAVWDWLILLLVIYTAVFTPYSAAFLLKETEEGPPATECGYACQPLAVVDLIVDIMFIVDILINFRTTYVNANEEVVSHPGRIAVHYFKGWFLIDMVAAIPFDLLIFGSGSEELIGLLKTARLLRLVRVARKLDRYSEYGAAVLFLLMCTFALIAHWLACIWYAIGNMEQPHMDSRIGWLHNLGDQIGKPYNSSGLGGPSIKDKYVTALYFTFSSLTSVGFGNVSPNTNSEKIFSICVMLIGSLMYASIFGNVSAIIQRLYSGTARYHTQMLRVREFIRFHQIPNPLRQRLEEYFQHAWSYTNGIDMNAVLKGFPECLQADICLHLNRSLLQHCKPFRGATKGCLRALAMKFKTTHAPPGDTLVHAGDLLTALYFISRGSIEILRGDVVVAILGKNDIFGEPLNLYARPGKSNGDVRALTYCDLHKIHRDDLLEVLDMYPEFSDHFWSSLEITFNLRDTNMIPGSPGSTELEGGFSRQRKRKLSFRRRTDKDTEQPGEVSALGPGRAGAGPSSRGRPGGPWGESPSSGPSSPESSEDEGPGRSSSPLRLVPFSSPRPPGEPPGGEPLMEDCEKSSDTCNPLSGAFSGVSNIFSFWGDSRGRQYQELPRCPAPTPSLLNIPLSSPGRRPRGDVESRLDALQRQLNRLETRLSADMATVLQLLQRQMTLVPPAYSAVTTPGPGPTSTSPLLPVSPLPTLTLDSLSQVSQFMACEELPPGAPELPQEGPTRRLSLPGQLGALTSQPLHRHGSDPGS

Compound	hERG maturation (mature/immature ratio), dose–response (hERG [1])	subcellular localization / membrane expression of hERG (hERG [2])	cytotoxicity (mammalian cell lines; mammalian cell lines)	other results
Cc1cc(C(=N)N)cc(C)c1OCCN(CCOc1c(C)cc(C(=N)N)cc1C)S(=O)(=O)c1ccccc1.Cl.Cl [3-phenylsulfonyl-1,5-bis(4-amidino-2,6-dimethylphenoxy)-3-azapentane dihydrochloride, reference compound]	–	–	–	anti-Pneumocystis activity (Pneumocystis): promising activity; cytotoxicity (mammalian cell lines): very low cytotoxicity
Cl.Cl.N=C(N)c1ccc(OCCSCCOc2ccc(C(=N)N)cc2)cc1 [Compound 1, 1,5-bis(4-amidinophenoxy)-3-thiapentane dihydrochloride]	dose-dependently decreased	pattern comparable with control cells and clear membrane staining was detected	less or moderate cytotoxicity	–
Cl.Cl.N=C(N)c1ccc(SCCOCCSc2ccc(C(=N)N)cc2)cc1 [Compound 2, 1,5-bis[4-(amidino)phenylthio]-3-oxapentane dihydrochloride]	dose-dependently decreased	pattern comparable with control cells and clear membrane staining was detected	–	–
Cl.Cl.c1cc(C2=NCCN2)ccc1OCCSCCOc1ccc(C2=NCCN2)cc1 [Compound 4, 1,5-bis[4-(4,5-dihydro-2-imidazolyl)phenoxy]-3-thiapentane dihydrochloride]	–	–	less or moderate cytotoxicity	–
CN(CCOc1ccc(NS(C)(=O)=O)cc1)CCc1ccc(NS(C)(=O)=O)cc1 [Dofetilide, reference compound]	–	–	–	hERG maturation (mature/immature ratio) (hERG [1]; pentamidine 10 μM, dofetilide 1 μM, analogues 1 and 10 μM): increases

From article PMC9082326 (RSC Advances, 2019)
